Assays:
[1] = tested on: stage IV or recurrent NSCLC; test: Multi-part phase 3 study of first-line nivolumab plus ipilimumab versus chemotherapy: efficacy; format: in vivo, human
Source text: Patients had chemotherapy-naive, stage IV or recurrent NSCLC.
Adult patients with PD-L1-histologically confirmed squamous or nonsquamous stage IV/recurrent NSCLC and Eastern Cooperative Oncology Group (ECOG) performance status (Oken M. M., et al. Am J Clin Oncol 5:649-55 (1982)) of 0 or 1 who had received no prior systemic anticancer therapy as primary therapy for advanced or metastatic disease were eligible for the study. All patients underwent imaging to screen for brain metastases. Patients with known EGFR mutations or ALK translocations sensitive to targeted therapy, an autoimmune disease, or untreated central nervous system metastases were excluded.
All treatments continued until disease progression, unacceptable toxicity, or completion per protocol (up to 2 years for immunotherapy). Crossover between treatment arms within the study was not permitted.
Part 1 of this study had two co-primary endpoints.
Hazard ratios of PFS with associated two-sided confidence intervals were estimated using an unstratified Cox proportional hazard model, with treatment group as a single covariate. A multivariate analysis was prespecified in patients with TMB≥10 mutations/Mb to assess the influence of known prognostic baseline factors on PFS. […] Survival curves were estimated using Kaplan-Meier methodology.

[2] = Phase 3 study of first-line nivolumab versus platinum-based chemotherapy: safety (adverse events)
Method: (§1) Maintenance pemetrexed was allowed in patients with nonsquamous NSCLC who had stable disease or response after cycle 4. […] Concomitant systemic corticosteroid treatment (<3-week courses) was allowed for non-autoimmune conditions, including but not limited to treatment-related adverse events (AEs) with a potential immunologic cause.
(§2) Tumor response was assessed every 6 weeks until week 48 and every 12 weeks thereafter. Safety assessments included the recording of AEs, graded according to the National Cancer Institute Common Terminology Criteria for Adverse Events, version 4.0.

[3] = monotherapy, every two weeks; cited from earlier work
PD-1 = biological target: T1, PD-1 (Homo sapiens, UniProt Q15116); details: across all doses, 0.3 mg/kg to 10 mg/kg; cited from earlier work
T1 construct: PD-1 occupancy appears to be dose-independent in this dose range

[4] = tested on: stage IV or recurrent NSCLC; test: Phase 3 study of first-line nivolumab versus platinum-based chemotherapy: efficacy; format: in vivo, human
Source text: The primary endpoint was progression-free survival (PFS) per blinded independent central review in patients with ≥5% PD-L1 expression.
Eligible adult patients had histologically confirmed squamous or nonsquamous stage IV/recurrent NSCLC, ECOG PS 0-1, and measurable disease per RECIST 1.1,^15 and had received no prior systemic anticancer therapy as primary therapy for advanced or metastatic disease. Patients with central nervous system metastases were eligible if adequately treated and neurologically returned to baseline ≥2 weeks before randomization. Eligible patients had to be off corticosteroids or on a stable or decreasing dose of ≤10 mg daily prednisone (or equivalent). […] Patients with an autoimmune disease or known EGFR mutations or ALK translocations sensitive to available targeted therapy were excluded. Only patients with ≥1% PD-L1 expression were randomized.
as §1
Randomization was stratified by PD-L1 expression (<5% vs. ≥5%) and tumor histology (squamous vs. nonsquamous).
The primary endpoint was PFS based on assessment by blinded independent central review (BICR) in patients with ≥5% PD-L1 expression. Secondary endpoints included PFS per BICR among all randomized patients (≥1% PD-L1 expression), OS among patients with ≥5% PD-L1 expression and among all randomized patients, and ORR per BICR among patients with ≥5% PD-L1 expression.
as §2
For efficacy analyses, patients were grouped according to TMB tertile distribution.
Comparison of PFS and OS between treatment groups was performed by two-sided log-rank tests stratified by PD-L1 expression level (≥5% vs. <5%; for endpoints in all randomized patients) and tumor histology. A stratified Cox proportional-hazards model including the randomized treatment arm as a single covariate was used to estimate HRs and their associated 95% CIs. The Kaplan-Meier method was used to estimate survival curves. ORRs were compared between treatment arms with a two-sided, stratified Cochran-Mantel-Haenszel test. The Clopper-Pearson method was used to estimate ORRs and their exact 95% CIs.

[5] = tested on: recurrent small cell lung cancer (SCLC); test: Clinical trial of nivolumab alone or with ipilimumab in SCLC, exploratory TMB analysis; format: in vivo, human
Source text: Subjects were selects who had previously been diagnosed with SCLC, and who had previously received at least one prior platinum-containing regimen (FIG. 23).
The primary objective was to measure the objective response rate (ORR) by per RECIST v1.1. Secondary objectives included monitoring safety, overall survival (OS), progression free survival (PFS), and duration of response (DOR). Prespecified exploratory objectives included biomarker analysis and health status using the EQ-5D instrument.
TMB was determined by whole exome sequencing, using an Illumina HiSeq 2500 using 2×100-bp paired-end reads, and calculated as the total number of nonsynonymous missense mutations in the tumor. For exploratory analyses, patients were divided into 3 subgroups based on TMB tertile.

[6] = exploratory subgroup with ≥50% PD-L1 expression
[7] = patients with high TMB (upper tertile)
[8] = patients with ≥5% PD-L1 expression
[9] = ≥5% PD-L1 expression, responders

T1 sequence (Q15116 25-288): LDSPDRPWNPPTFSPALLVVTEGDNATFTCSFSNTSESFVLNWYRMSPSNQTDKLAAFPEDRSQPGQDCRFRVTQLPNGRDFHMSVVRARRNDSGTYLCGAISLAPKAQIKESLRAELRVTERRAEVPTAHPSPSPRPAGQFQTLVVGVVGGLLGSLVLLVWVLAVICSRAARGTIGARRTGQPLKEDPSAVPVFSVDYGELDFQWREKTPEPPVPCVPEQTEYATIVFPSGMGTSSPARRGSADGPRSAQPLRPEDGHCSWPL

Nivolumab
median PFS ([1]; TMB≥10 mutations/Mb and ≥1% PD-L1 expression): 4.2 months
median PFS ([1]; TMB≥13 mutations/Mb and ≥1% PD-L1 expression): 4.2 months
Treatment-related adverse events: Any event ([2]; Grade 3-4): 47 (17.6) n (%)
Not continuing in the treatment period: Study drug toxicity ([2]; in vivo): 27 (10.1) n (%)
Treatment-related AEs leading to discontinuation of study drug ([2]; in vivo): 9.7%
Treatment-related adverse events leading to discontinuation: Adrenal insufficiency ([2]; in vivo): 1 (0.4) n (%)
Treatment-related adverse events leading to discontinuation: Alanine aminotransferase increased ([2]; in vivo): 5 (1.9) n (%)
Treatment-related adverse events leading to discontinuation: Aphasia ([2]; in vivo): 1 (0.4) n (%)
Treatment-related adverse events leading to discontinuation: Aspartate aminotransferase increased ([2]; in vivo): 5 (1.9) n (%)
Treatment-related adverse events leading to discontinuation: Cholestasis ([2]; in vivo): 1 (0.4) n (%)
Treatment-related adverse events leading to discontinuation: Colitis ([2]; in vivo): 2 (0.7) n (%)
Treatment-related adverse events leading to discontinuation: Confused state ([2]; in vivo): 1 (0.4) n (%)
Treatment-related adverse events leading to discontinuation: Hypersensitivity ([2]; in vivo): 1 (0.4) n (%)
Treatment-related adverse events leading to discontinuation: Interstitial lung disease ([2]; in vivo): 1 (0.4) n (%)
Treatment-related adverse events leading to discontinuation: Multiple organ dysfunction ([2]; in vivo): 1 (0.4) n (%)
Treatment-related adverse events leading to discontinuation: Nausea ([2]; in vivo): 1 (0.4) n (%)
Treatment-related adverse events leading to discontinuation: Pericardial effusion malignant ([2]; in vivo): 1 (0.4) n (%)
Treatment-related adverse events leading to discontinuation: Pneumonitis ([2]; in vivo): 3 (1.1) n (%)
Treatment-related adverse events leading to discontinuation: Rash ([2]; in vivo): 1 (0.4) n (%)
Treatment-related adverse events leading to discontinuation: Rash maculopapular ([2]; in vivo): 1 (0.4) n (%)
Treatment-related adverse events leading to discontinuation: Rash papular ([2]; in vivo): 1 (0.4) n (%)
Treatment-related adverse events leading to discontinuation: Stevens-Johnson syndrome ([2]; in vivo): 1 (0.4) n (%)
Treatment-related adverse events leading to discontinuation: Transaminases increased ([2]; in vivo): 1 (0.4) n (%)
Treatment-related adverse events: Any event ([2]; in vivo): 190 (71.2) n (%)
Treatment-related adverse events: Leukopenia ([2]; in vivo): 0 n (%)
Treatment-related adverse events: Neutropenia ([2]; in vivo): 0 n (%)
Treatment-related adverse events: Neutrophil count decreased ([2]; in vivo): 1 (0.4) n (%)
Treatment-related serious adverse events: Anemia ([2]; in vivo): 0 n (%)
Treatment-related serious adverse events: Aspartate aminotransferase increased ([2]; in vivo): 6 (2.2) n (%)
Treatment-related serious adverse events: Febrile neutropenia ([2]; in vivo): 0 n (%)
Treatment-related serious adverse events: Thrombocytopenia ([2]; in vivo): 0 n (%)
maximum tolerated dose (MTD), not reached up to [3]: > 10 mg/kg
mean PD-1 occupancy rate (PD-1): 85%
mean plateau PD-1 occupancy (PD-1): 72%
Complete or partial response ([4]; TMB High): 22 (46.8) n (%)
Progressive disease ([4]; TMB High): 7 (14.9) n (%)
Response could not be determined ([4]; TMB High): 3 (6.4) n (%)
Stable disease ([4]; TMB High): 15 (31.9) n (%)
Complete or partial response ([4]; TMB Low): 11 (17.7) n (%)
Progressive disease ([4]; TMB Low): 21 (33.9) n (%)
Response could not be determined ([4]; TMB Low): 5 (8.1) n (%)
Stable disease ([4]; TMB Low): 25 (40.3) n (%)
Complete or partial response ([4]; TMB Low/medium (pooled)): 25 (22.5) n (%)
Progressive disease ([4]; TMB Low/medium (pooled)): 32 (28.9) n (%)
Response could not be determined ([4]; TMB Low/medium (pooled)): 9 (8.1) n (%)
Stable disease ([4]; TMB Low/medium (pooled)): 45 (40.5) n (%)
Complete or partial response ([4]; TMB Medium): 14 (28.6) n (%)
Progressive disease ([4]; TMB Medium): 11 (22.4) n (%)
Response could not be determined ([4]; TMB Medium): 4 (8.2) n (%)
Stable disease ([4]; TMB Medium): 20 (40.8) n (%)
ORR [4, 6]: 34.1%
OS hazard ratio, nivolumab versus chemotherapy [4, 6]: 0.90
PFS hazard ratio, nivolumab versus chemotherapy [4, 6]: 1.07
median PFS ([4]; patients with high TMB): 9.7 months
PFS hazard ratio, nivolumab versus chemotherapy [4, 7]: 0.62
objective response rate (ORR) [4, 7]: 46.8%
OS hazard ratio, nivolumab versus chemotherapy [4, 8]: 1.02
Objective response, % of patients (95% CI) [4, 8]: 26.1 (20.3-32.5) %
Objective response, No. of patients [4, 8]: 55
PFS hazard ratio, nivolumab versus chemotherapy [4, 8]: 1.15
median OS [4, 8]: 14.4 months
median PFS [4, 8]: 4.2 months
Objective response, % of patients (95% CI) ([4]; patients with ≥5% PD-L1 expression, listed as nivolumab): 26.1%
Best overall response: Complete response ([4]; ≥5% PD-L1 expression): 4 (1.9) no. (%)
Best overall response: Could not be determined ([4]; ≥5% PD-L1 expression): 17 (8.1) no. (%)
Best overall response: Partial response ([4]; ≥5% PD-L1 expression): 51 (24.2) no. (%)
Best overall response: Progressive disease ([4]; ≥5% PD-L1 expression): 58 (27.5) no. (%)
Best overall response: Stable disease ([4]; ≥5% PD-L1 expression): 81 (38.4) no. (%)
Proportion of patients with a best response of progressive disease ([4]; ≥5% PD-L1 expression): 27.5%
Objective response, estimated odds ratio (95% CI) ([4]; ≥5% PD-L1 expression, nivolumab versus chemotherapy): 0.70 (0.46-1.06)
Duration of response, median [4, 9]: 12.1 mo
Time to response, median [4, 9]: 2.8 mo
Time to response, range [4, 9]: 1.2-13.2 mo
ORR ([5]; ITT patients): 11.4%
ORR ([5]; TMB-evaluable patients): 11.3%
ORR ([5]; high TMB): about 21.3%
OS at 1 year ([5]; high TMB): 35.2%
PFS at 1 year ([5]; high TMB): 21.2%
average PFS ([5]; high TMB): about 1.4%
median OS ([5]; high TMB): about 5.4%
patients with overall survival over 2 years ([5]; initial results of the SCLC trial): 14%
ORR ([5]; low TMB): about 4.8%
OS at 1 year ([5]; low TMB): 22.1%
average PFS ([5]; low TMB): about 1.3%
median OS ([5]; low TMB): about 3.1%
ORR ([5]; medium TMB): about 6.8%
OS at 1 year ([5]; medium TMB): about 26.0%
PFS at 1 year ([5]; medium TMB): 3.15%
average PFS ([5]; medium TMB): about 1.3%
median OS ([5]; medium TMB): about 3.9%

— patent publication US20250059610A1, “METHODS OF TREATING TUMOR” (priority 2017, published 2025)
